Assay results as given in the NIST ThermoML archive (doi:10.1021/je400529k).
± gives the expanded uncertainty stated by the source.

Tests used:
[1] = xn = mol fraction of the nth substance listed; conditions: 101 kPa, Liquid; for viscosity: Capillary tube (Ostwald / Ubbelohde) method; for mass density: Vibrating tube method
[2] = refractive index (Na D-line) (dimensionless); xn = mol fraction of the nth substance listed; conditions: 101 kPa, Liquid, Standard Abbe refractometry

C1C[C@@H]2[C@H]3CC[C@H](C3)[C@@H]2C1 [exo-tetrahydrodicyclopentadiene] + CC1CCCCC1
Conditions | mass density, [1] [kg/m3] | refractive index, [2] | viscosity, [1] [mPa·s]
293.15 K, x1 = 0.1 | 788.79 ± 0.15 | 1.4298 ± 0.001 | 0.842 ± 0.009
293.15 K, x1 = 0.2009 | 807.71 ± 0.15 | 1.4376 ± 0.001 | 0.959 ± 0.01
293.15 K, x1 = 0.301 | 825.81 ± 0.15 | 1.4447 ± 0.001 | 1.102 ± 0.01
293.15 K, x1 = 0.3999 | 843.02 ± 0.14 | 1.4515 ± 0.001 | 1.267 ± 0.011
293.15 K, x1 = 0.4999 | 859.94 ± 0.14 | 1.4586 ± 0.001 | 1.454 ± 0.012
293.15 K, x1 = 0.5992 | 876.09 ± 0.14 | 1.4646 ± 0.001 | 1.67 ± 0.012
293.15 K, x1 = 0.7004 | 891.98 ± 0.14 | 1.4709 ± 0.001 | 1.925 ± 0.014
293.15 K, x1 = 0.7995 | 906.95 ± 0.14 | 1.4768 ± 0.001 | 2.22 ± 0.015
293.15 K, x1 = 0.9011 | 921.82 ± 0.15 | 1.482 ± 0.001 | 2.582 ± 0.017
293.15 K, x1 = 1 | 935.72 ± 0.15 | 1.4874 ± 0.001 | 2.992 ± 0.02
298.15 K, x1 = 0.1 | 784.53 ± 0.15 | – | 0.785 ± 0.009
298.15 K, x1 = 0.2009 | 803.5 ± 0.15 | – | 0.892 ± 0.01
298.15 K, x1 = 0.301 | 821.64 ± 0.15 | – | 1.023 ± 0.01
298.15 K, x1 = 0.3999 | 838.89 ± 0.14 | – | 1.171 ± 0.01
298.15 K, x1 = 0.4999 | 855.86 ± 0.14 | – | 1.34 ± 0.011
298.15 K, x1 = 0.5992 | 872.05 ± 0.14 | – | 1.534 ± 0.012
298.15 K, x1 = 0.7004 | 887.96 ± 0.14 | – | 1.762 ± 0.013
298.15 K, x1 = 0.7995 | 902.99 ± 0.15 | – | 2.026 ± 0.014
298.15 K, x1 = 0.9011 | 917.88 ± 0.15 | – | 2.347 ± 0.016
298.15 K, x1 = 1 | 931.84 ± 0.15 | – | 2.71 ± 0.018
303.15 K, x1 = 0.1 | 780.25 ± 0.15 | 1.4253 ± 0.001 | 0.735 ± 0.009
303.15 K, x1 = 0.2009 | 799.26 ± 0.15 | 1.4324 ± 0.001 | 0.833 ± 0.009
303.15 K, x1 = 0.301 | 817.46 ± 0.15 | 1.4402 ± 0.001 | 0.952 ± 0.01
303.15 K, x1 = 0.3999 | 834.75 ± 0.15 | 1.4472 ± 0.001 | 1.087 ± 0.01
303.15 K, x1 = 0.4999 | 851.75 ± 0.14 | 1.4539 ± 0.001 | 1.239 ± 0.011
303.15 K, x1 = 0.5992 | 867.99 ± 0.14 | 1.4599 ± 0.001 | 1.416 ± 0.011
303.15 K, x1 = 0.7004 | 883.94 ± 0.14 | 1.4662 ± 0.001 | 1.621 ± 0.012
303.15 K, x1 = 0.7995 | 899.01 ± 0.15 | 1.4722 ± 0.001 | 1.857 ± 0.014
303.15 K, x1 = 0.9011 | 913.94 ± 0.15 | 1.478 ± 0.001 | 2.146 ± 0.015
303.15 K, x1 = 1 | 927.94 ± 0.15 | 1.4831 ± 0.001 | 2.467 ± 0.017
308.15 K, x1 = 0.1 | 775.95 ± 0.16 | – | 0.692 ± 0.009
308.15 K, x1 = 0.2009 | 795.01 ± 0.15 | – | 0.781 ± 0.009
308.15 K, x1 = 0.301 | 813.26 ± 0.15 | – | 0.89 ± 0.01
308.15 K, x1 = 0.3999 | 830.6 ± 0.15 | – | 1.013 ± 0.01
308.15 K, x1 = 0.4999 | 847.64 ± 0.15 | – | 1.151 ± 0.01
308.15 K, x1 = 0.5992 | 863.93 ± 0.14 | – | 1.312 ± 0.011
308.15 K, x1 = 0.7004 | 879.91 ± 0.15 | – | 1.497 ± 0.012
308.15 K, x1 = 0.7995 | 895.01 ± 0.15 | – | 1.709 ± 0.013
308.15 K, x1 = 0.9011 | 910 ± 0.15 | – | 1.967 ± 0.014
308.15 K, x1 = 1 | 924.02 ± 0.15 | – | 2.255 ± 0.016
313.15 K, x1 = 0.1 | 771.64 ± 0.16 | 1.4198 ± 0.001 | 0.652 ± 0.009
313.15 K, x1 = 0.2009 | 790.75 ± 0.15 | 1.4276 ± 0.001 | 0.733 ± 0.009
313.15 K, x1 = 0.301 | 809.05 ± 0.15 | 1.4351 ± 0.001 | 0.834 ± 0.009
313.15 K, x1 = 0.3999 | 826.43 ± 0.15 | 1.4421 ± 0.001 | 0.947 ± 0.01
313.15 K, x1 = 0.4999 | 843.53 ± 0.15 | 1.449 ± 0.001 | 1.074 ± 0.01
313.15 K, x1 = 0.5992 | 859.84 ± 0.15 | 1.4549 ± 0.001 | 1.218 ± 0.011
313.15 K, x1 = 0.7004 | 875.88 ± 0.15 | 1.4617 ± 0.001 | 1.388 ± 0.011
313.15 K, x1 = 0.7995 | 891.03 ± 0.15 | 1.4672 ± 0.001 | 1.579 ± 0.012
313.15 K, x1 = 0.9011 | 906.04 ± 0.15 | 1.4732 ± 0.001 | 1.81 ± 0.013
313.15 K, x1 = 1 | 920.11 ± 0.15 | 1.4786 ± 0.001 | 2.069 ± 0.015
318.15 K, x1 = 0.1 | 767.31 ± 0.16 | – | 0.616 ± 0.009
318.15 K, x1 = 0.2009 | 786.48 ± 0.15 | – | 0.691 ± 0.009
318.15 K, x1 = 0.301 | 804.83 ± 0.15 | – | 0.783 ± 0.009
318.15 K, x1 = 0.3999 | 822.26 ± 0.15 | – | 0.887 ± 0.01
318.15 K, x1 = 0.4999 | 839.4 ± 0.15 | – | 1.003 ± 0.01
318.15 K, x1 = 0.5992 | 855.75 ± 0.15 | – | 1.135 ± 0.01
318.15 K, x1 = 0.7004 | 871.84 ± 0.15 | – | 1.29 ± 0.011
318.15 K, x1 = 0.7995 | 887.03 ± 0.15 | – | 1.463 ± 0.012
318.15 K, x1 = 0.9011 | 902.08 ± 0.15 | – | 1.672 ± 0.013
318.15 K, x1 = 1 | 916.18 ± 0.15 | – | 1.907 ± 0.014
